Measurements: ChEMBL document CHEMBL2177016 (J Med Chem, 2012)
Calls of active or inactive are those of the source. The calls are words filed in the database; no cut-off is given here.

Legend:
Carbonic anhydrase 9 = Carbonic anhydrase 9 (Homo sapiens, UniProt Q16790)
Description: Inhibition of human recombinant CA9 catalytic domain pre-incubated for 15 mins by stopped-flow CO2 hydration method

[1] = target: T1, PROBABLE TRANSMEMBRANE CARBONIC ANHYDRASE (CARBONATE DEHYDRATASE) (CARBONIC DEHYDRATASE) (Mycobacterium tuberculosis, UniProt P96878)
T1 sequence (P96878 whole entry): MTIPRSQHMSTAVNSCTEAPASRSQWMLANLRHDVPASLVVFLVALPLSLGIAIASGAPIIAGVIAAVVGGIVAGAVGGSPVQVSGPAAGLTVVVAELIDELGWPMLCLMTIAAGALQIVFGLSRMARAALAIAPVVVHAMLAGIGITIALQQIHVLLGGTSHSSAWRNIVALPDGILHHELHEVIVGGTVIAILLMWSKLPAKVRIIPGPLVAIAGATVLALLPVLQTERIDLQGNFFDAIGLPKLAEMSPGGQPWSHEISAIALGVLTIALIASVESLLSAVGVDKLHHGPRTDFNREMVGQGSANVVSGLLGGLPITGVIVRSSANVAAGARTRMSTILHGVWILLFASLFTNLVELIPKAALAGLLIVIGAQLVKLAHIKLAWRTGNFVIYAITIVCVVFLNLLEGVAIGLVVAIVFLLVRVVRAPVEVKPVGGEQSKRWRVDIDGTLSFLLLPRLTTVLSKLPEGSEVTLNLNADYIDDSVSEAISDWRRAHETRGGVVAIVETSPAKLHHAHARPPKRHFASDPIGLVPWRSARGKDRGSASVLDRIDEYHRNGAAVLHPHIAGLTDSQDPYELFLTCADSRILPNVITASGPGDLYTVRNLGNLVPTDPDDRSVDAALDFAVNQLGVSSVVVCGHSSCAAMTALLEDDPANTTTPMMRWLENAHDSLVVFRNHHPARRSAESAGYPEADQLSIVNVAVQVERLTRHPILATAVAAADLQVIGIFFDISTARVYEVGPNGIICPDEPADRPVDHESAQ
Description: Inhibition of Mycobacterium tuberculosis recombinant carbonic anhydrase Rv3273 pre-incubated for 15 mins by stopped-flow CO2 hydration method

[2] = target: T2, Beta-carbonic anhydrase 1 (Mycobacterium tuberculosis, UniProt P9WPJ7)
T2 sequence (P9WPJ7 whole entry): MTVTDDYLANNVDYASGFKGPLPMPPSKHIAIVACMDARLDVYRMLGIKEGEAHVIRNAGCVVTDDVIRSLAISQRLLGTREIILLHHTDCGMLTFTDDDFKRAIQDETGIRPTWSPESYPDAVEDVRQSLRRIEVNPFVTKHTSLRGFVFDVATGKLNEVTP
Description: Inhibition of Mycobacterium tuberculosis recombinant carbonic anhydrase Rv1284 pre-incubated for 15 mins by stopped-flow CO2 hydration method

Carbonic anhydrase 2 = target: T3, Carbonic anhydrase 2 (Mycobacterium tuberculosis, UniProt P9WPJ9)
T3 sequence (P9WPJ9 whole entry): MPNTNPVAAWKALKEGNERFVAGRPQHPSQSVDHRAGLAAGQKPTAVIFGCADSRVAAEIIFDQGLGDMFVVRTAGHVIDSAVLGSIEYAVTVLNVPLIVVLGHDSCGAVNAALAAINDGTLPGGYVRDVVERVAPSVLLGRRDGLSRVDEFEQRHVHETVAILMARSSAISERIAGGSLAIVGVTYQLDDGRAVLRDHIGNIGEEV
Description: Inhibition of Mycobacterium tuberculosis recombinant carbonic anhydrase Rv3588c pre-incubated for 15 mins by stopped-flow CO2 hydration method

[3] = target: T4, Prostaglandin G/H synthase 2 (Ovis aries) (UniProt P79208); test: Inhibition of ovine COX2 at 100 uM incubated for 5 mins by colorimetric assay
T4 sequence (whole entry): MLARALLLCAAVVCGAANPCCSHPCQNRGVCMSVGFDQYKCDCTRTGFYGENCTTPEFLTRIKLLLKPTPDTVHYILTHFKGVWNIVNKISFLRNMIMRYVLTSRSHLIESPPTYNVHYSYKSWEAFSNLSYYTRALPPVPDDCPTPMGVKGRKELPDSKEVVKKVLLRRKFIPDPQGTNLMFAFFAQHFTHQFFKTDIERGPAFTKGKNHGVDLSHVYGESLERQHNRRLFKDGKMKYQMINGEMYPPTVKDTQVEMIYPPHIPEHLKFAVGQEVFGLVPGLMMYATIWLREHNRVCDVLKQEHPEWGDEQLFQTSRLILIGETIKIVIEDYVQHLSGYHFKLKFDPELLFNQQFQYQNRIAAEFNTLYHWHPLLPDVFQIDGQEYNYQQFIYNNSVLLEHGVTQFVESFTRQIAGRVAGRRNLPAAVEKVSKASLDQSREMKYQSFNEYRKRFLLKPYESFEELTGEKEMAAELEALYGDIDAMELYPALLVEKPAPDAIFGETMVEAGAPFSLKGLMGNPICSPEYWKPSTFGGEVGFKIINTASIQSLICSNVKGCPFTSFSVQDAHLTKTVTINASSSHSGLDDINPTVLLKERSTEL

Carbonic anhydrase 3 = Carbonic anhydrase 3 (Homo sapiens, UniProt P07451)
Sequence of Carbonic anhydrase 3 (P07451 whole entry): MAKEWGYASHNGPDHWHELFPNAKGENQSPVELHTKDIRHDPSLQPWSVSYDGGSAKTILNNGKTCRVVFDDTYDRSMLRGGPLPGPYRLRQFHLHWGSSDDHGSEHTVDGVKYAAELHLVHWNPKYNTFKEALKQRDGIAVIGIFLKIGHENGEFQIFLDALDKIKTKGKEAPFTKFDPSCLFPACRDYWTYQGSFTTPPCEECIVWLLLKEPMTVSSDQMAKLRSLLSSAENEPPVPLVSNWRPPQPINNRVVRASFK
Description: Inhibition of human recombinant full length CA3 pre-incubated for 15 mins by stopped-flow CO2 hydration method

Row | Structure (SMILES) | Ki (Carbonic anhydrase 9) [nM] | Ki [1] [nM] | Ki [2] [nM] | Ki (Carbonic anhydrase 2) [nM] | inhibition [3] | Ki (Carbonic anhydrase 3) [nM]
1 | COc1ccc2c(c1)SCc1cnn(-c3ccc(S(N)(=O)=O)cc3)c1-2 | 2180 | 750 | 870 | 610 | inactive | 
2 | Cc1ccc(-c2cc(C(F)(F)F)nn2-c2ccc(S(N)(=O)=O)cc2)cc1 [CELECOXIB] |  | 7760 |  |  |  | 7400
3 | NS(=O)(=O)c1ccc(-n2ncc3c2-c2cccnc2SC3)cc1 | 2340 | 286 | 134 | 273 | inactive | 
4 | Cc1ccc2c(n1)SCc1cnn(-c3ccc(S(N)(=O)=O)cc3)c1-2 |  | 241 | 115 | 144 | inactive | 
5 | NS(=O)(=O)c1ccc(-n2ncc3c2-c2ccc(Cl)cc2SC3)cc1 | 1840 | 316 | 412 | 235 | inactive | 
6 | NS(=O)(=O)c1ccc(-n2ncc3c2-c2ccc(C(F)(F)F)cc2SC3)cc1 | 2570 | 238 | 613 | 357 | inactive | 
